# According to patent US6217879A, “Enzyme-decomposed materials of laver and uses thereof” (Shirako Co., Ltd., priority 1998, dated 2001):
# Assay: Anti-oxidant action, linoleic acid peroxide number by rhodan iron method
# Details: 3 mg α-tocopherol, 50° C.
# Protocol: The respective fractions were measured for anti-oxidant activity in the following manner.
# This solution was sealed in a test tube equipped with a screw and left in a thermostatic chamber at 50° C., and the peroxide number of the linoleic acid was measured every 48 hours by the rhodan iron method. […] The number of days elapsed until the absorbance at 500 nm reached 0.35 was assumed to be induction period (days).
compound,measurement,value
Cc1c(C)c2c(c(C)c1O)CCC(C)(CCCC(C)CCCC(C)CCCC(C)C)O2 (stereo not drawn) [α-tocopherol],Induction period (days until absorbance at 500 nm reached 0.35),8 days
